Laboratory results reported in US6723897B2, “Methods for controlling gibberellin levels” (Monsanto Technology, LLC, priority 1998, dated 2004).

Tests used:
[1] = test system: non-transgenic soybean line A4922; experiment: Field trial of seed coatings under soil compaction / different soils, wild-type soybean; format: in vivo, Glycine max; conditions: for Count (emergence) / Height (total plant height): A4922
Experimental: The second trial (data reported in Tables 22-24) tested the precursors under conditions of soil compaction.
As noted above, the second trial tested the noted precursors under conditions of soil compaction. These experiments are performed in the same manner as in the first trial, except that the soil is compacted with an all-terrain vehicle.
“Height” equals total plant height in cm.

[2] = test system: transgenic line 719 soybean; experiment: Field trial of seed coatings under soil compaction / different soils, GA-deficient soybean; format: in vivo, Glycine max; conditions: for Count (emergence) / Dwarfs (number of dwarfs not rescued) / Dwarfs (number not rescued): Line 719
[3] = Distribution of 14C label in soybean plant parts after seed treatment
Experimental: ^14C-radiolabelled compounds are obtained from Lew Mander (Australian National University). ^14C-GA3 is dissolved in water:ethanol, 80:20, v/v; ^14C-GA9 and ^14C-GA12 are dissolved in 100% ethanol. Seeds of Asgrow 3237 soybeans are treated separately with solutions of each of the ^14C-radiolabelled compounds (1.7-6.8 μg; 10-40 ppm; 111,000-2,000,000 dpm/seed) by placing one to four μl of the dosing solution directly on the seed coat (^14C-GA3, GA9, and GA12), or on the hilum portion of the seed (^14C-GA3). After evaporation of the carrier solvent (approx. one hour), the treated seed is planted in containers containing approximately 30 gm of Metromix-350, and transferred to a growth chamber. Plants are grown under a 12 hour light/12 hour dark regime at 92° F. (33° C.)and 75% humidity. The pattern of uptake and translocation of ^14C-radioactivity in treated seed is monitored up to 12 days past initial treatment. For most experiments, three replicate plants are harvested at one hour after treatment, one day after treatment (DAT), two DAT, three DAT, six or seven DAT, and 12 DAT. At the time of each harvest, plants are divided into leaves, epicotyl, cotyledon, hypocotyl, and roots. The level of ^14C-radioactivity in different plant parts is determined by extraction of plant tissues with aqueous methanol and scintillation counting. The extent of metabolism of the ^14C-labelled GA compounds in planta is determined by HPLC analysis of plant extracts. The details are as follows.
The general extraction procedure consisted of blending the plant parts in a high speed polytron tissue homogenizer for 1-5 minutes with 10-20 ml of ice-cold methanol:water, 80:20, v/v, followed by vacuum filtration through a Whatman glass fiber filter. The filter cake is re-extracted as necessary using the procedure described above until an insignificant amount of radioactivity is removed. Prior to combining the extracts from each sample, aliquots are weighed and analyzed by liquid scintillation counting (LSC) to determine the amount of extracted radioactivity in each extract. Aliquots of the air-dried filter cakes are combusted and analyzed by LSC in order to determine the amount of non-extracted radioactivity. The extracts are combined and, when necessary, concentrated by rotary evaporation at a bath temperature of less than 35° C. to a small volume for analysis by HPLC to determine the extent of metabolism of the ^14C-labelled GA compounds in planta.

[4] = test system: wild-type soybean line A3237; experiment: Experiment II second greenhouse test, seed imbibition, wild-type soybean; format: in vivo, Glycine max; conditions: 0.25 mg/ml; seeds imbibed 6 hours
Experimental: (The compounds are tested in Experiment I at only one concentration, i.e., 0.25 mg/ml). Test tubes contained […] of ethanol solution per tube. Final volumes are made up to 30 ml with deionized water. After shaking, the treatment solutions (15 ml each) are transferred to each of two 50 ml test tubes. […] Twenty seeds are used in each treatment. Dry seed, ethanol/water-imbibed seed (1% ethanol in water, v/v), and water-imbibed seeds are included as controls. Seeds are imbibed for 6 hours in the test solutions, then planted in bread pans containing Metromix 350 (The Scotts Company, Marysville, Ohio), and covered with 0.5″ Metro-mix. Covered pans are transferred to the greenhouse and subirrigated. Illumination is at a light intensity of 300-400 μmolm^−2s^−1 photosynthetic photon flux; 16 hours light/8 hours dark. Subsequent waterings are also through sub-irrigation until the test is terminated three weeks later. Observations included the number of dwarf, intermediate, and tall plants; plant height; uniformity of rescue; and any visual effects. Digital photographs are also taken.

[5] = test system: AX5/antisense CPScc soybean line 234 (R3); experiment: Hilum seed treatment of epicotyl-intensive GA-deficient soybean, height (FIG. 43); format: in vivo, Glycine max; conditions: 10 DAP
Experimental: The purpose of this study is to evaluate the ability of four GA compounds, i.e., GA9, GA5, GA3-3-acetate, and GA12, to restore normal growth in AX5/antisense CPScc soybean lines when applied as a seed treatment.
Line 46 plants are R2; Line 234 plants are R3.
The GA compounds are dissolved in ethanol and applied to the hilum of dry seeds as not more than 10 μl droplets with a syringe. If multiple applications are made to seeds, the previous application is allowed to dry before a subsequent application is made.
Seeds are sown 1 inch deep in commercial potting soil (Metromix 200) in 4-inch plastic pots and placed in a greenhouse set for 12 hours artificial light and a temperature regime of 85° F. (29° C.) day and 75° F. night (24° C.). Pots are watered as necessary by overhead hand watering. Hypocotyl and epicotyl measurements are made for each plant at various stages of plant growth.
The lower dashed horizontal line represents the total height of untreated AX5 line 234 soybeans. The upper dashed horizontal line represents the total height of untreated wild-type A4922 soybeans. Measurements are made 10 days after planting.

[6] = Heavy soil - Loose, target rate 0.5 μg/seed, Table 23
[7] = Heavy soil - Loose, target rate 4.0 μg/seed, Table 23
[8] = Heavy soil - Loose, target rate 8.0 μg/seed, Table 23
[9] = Heavy soil - Loose, target rate 16.0 μg/seed, Table 23
[10] = Heavy soil - compacted, target rate 0.5 μg/seed, Table 23
[11] = Heavy soil - compacted, target rate 4.0 μg/seed, Table 23
[12] = Heavy soil - compacted, target rate 8.0 μg/seed, Table 23
[13] = Heavy soil - compacted, target rate 16.0 μg/seed, Table 23
[14] = Heavy soil - loose, target rate 0.5 μg/seed, Table 22
[15] = Heavy soil - loose, target rate 2.0 μg/seed, Table 22
[16] = Light soil - Compacted, target rate 0.5 μg/seed, Table 22
[17] = Light soil - Compacted, target rate 2.0 μg/seed, Table 22
[18] = Light soil - Loose, target rate 0.5 μg/seed, Table 24
[19] = Light soil - Loose, target rate 2.0 μg/seed, Table 24
[20] = Light soil - Loose, target rate 4.0 μg/seed, Table 24
[21] = Light soil - compacted, target rate 0.5 μg/seed, Table 24
[22] = Light soil - compacted, target rate 2.0 μg/seed, Table 24
[23] = Light soil - compacted, target rate 4.0 μg/seed, Table 24

Structure (SMILES): C=C1C[C@]23C[C@@]1(O)CC[C@H]2[C@@]12C=C[C@H](O)[C@@](C)(C(=O)O1)[C@H]2[C@@H]3C(=O)O [GA3, gibberellic acid]
- Count (emergence) [1, 6]: 25.0 cde
- Height (total plant height) [1, 6]: 5.0 efg cm
- Count (emergence) [1, 7]: 24.7 de
- Height (total plant height) [1, 7]: 8.7 a cm
- Count (emergence) [1, 8]: 29.3 a-d
- Height (total plant height) [1, 8]: 6.3 cde cm
- Count (emergence) [1, 9]: 24.7 dc
- Height (total plant height) [1, 9]: 7.0 bc cm
- Count (emergence) [1, 10]: 8.3 cd
- Height (total plant height) [1, 10]: 4.3 b-e cm
- Count (emergence) [1, 11]: 4.0 de
- Height (total plant height) [1, 11]: 8.0 a cm
- Count (emergence) [1, 12]: 9.7 a-d
- Height (total plant height) [1, 12]: 6.0 bc cm
- Count (emergence) [1, 13]: 6.3 cde
- Height (total plant height) [1, 13]: 6.7 ab cm
- Count (emergence) [1, 14]: 25 cde
- Height (total plant height) [1, 14]: 5.0 efg cm
- Count (emergence) [1, 15]: 21 ef
- Height (total plant height) [1, 15]: 6.7 bcd cm
- Count (emergence) [1, 16]: 28 bcd
- Height (total plant height) [1, 16]: 5.7 def cm
- Count (emergence) [1, 17]: 13 ef
- Height (total plant height) [1, 17]: 8.0 c cm
- Count (emergence) [1, 18]: 43.0 abc
- Height (total plant height) [1, 18]: 7.0 ef cm
- Count (emergence) [1, 19]: 38.3 bc
- Height (total plant height) [1, 19]: 9.0 cd cm
- Count (emergence) [1, 20]: 37.7 c
- Height (total plant height) [1, 20]: 10.3 b cm
- Count (emergence) [1, 21]: 28.3 bcd
- Height (total plant height) [1, 21]: 5.7 def cm
- Count (emergence) [1, 22]: 12.7 ef
- Height (total plant height) [1, 22]: 8.0 c cm
- Count (emergence) [1, 23]: 7.7 f
- Height (total plant height) [1, 23]: 10.3 b cm
- emergence at approximately equivalent biological response (height) ([1]; compacted soil, FIG. 40): 68%
- % Emergence, Heavy Soil-Loose ([2]; 0.1 μg/seed): 78%
- % Emergence, Light Soil-Compact ([2]; 0.1 μg/seed): 59%
- % Rescue, Heavy Soil-Loose ([2]; 0.1 μg/seed): 80%
- % Rescue, Light Soil-Compact ([2]; 0.1 μg/seed): 100%
- % Emergence, Heavy Soil-Loose ([2]; 2.0 μg/seed): 66%
- % Emergence, Light Soil-Compact ([2]; 2.0 μg/seed): 51%
- % Rescue, Heavy Soil-Loose ([2]; 2.0 μg/seed): 93%
- % Rescue, Light Soil-Compact ([2]; 2.0 μg/seed): 100%
- Count (emergence) [2, 6]: 27.3 cd
- Dwarfs (number of dwarfs not rescued) [2, 6]: 2.0 cde
- Count (emergence) [2, 7]: 14.3 f
- Dwarfs (number of dwarfs not rescued) [2, 7]: 0 e
- Count (emergence) [2, 8]: 35.3 abc
- Dwarfs (number of dwarfs not rescued) [2, 8]: 0.7 cde
- Count (emergence) [2, 9]: 30.7 bcd
- Dwarfs (number of dwarfs not rescued) [2, 9]: 0 e
- Count (emergence) [2, 10]: 7.7 efg
- Dwarfs (number of dwarfs not rescued) [2, 10]: 0.3 cd
- Dwarfs (number of dwarfs not rescued) ([2]; Heavy soil - compacted, target rate 2.0 μg/seed, Table 23): 0 days
- Count (emergence) [2, 11]: 3.3 fg
- Dwarfs (number of dwarfs not rescued) [2, 11]: 0 days
- Count (emergence) [2, 12]: 8.7 g·days
- Dwarfs (number of dwarfs not rescued) [2, 12]: 0 days
- Count (emergence) [2, 13]: 12.0 b-e
- Dwarfs (number of dwarfs not rescued) [2, 13]: 0 days
- Count (emergence) [2, 14]: 27 cd
- Dwarfs (number of dwarfs not rescued) [2, 14]: 2.0 cde
- Count (emergence) [2, 15]: 25 de
- Dwarfs (number of dwarfs not rescued) [2, 15]: 0.7 cde
- Count (emergence) [2, 16]: 22 efg
- Dwarfs (number of dwarfs not rescued) [2, 16]: 0 days
- Count (emergence) [2, 17]: 19 fg
- Dwarfs (number of dwarfs not rescued) [2, 17]: 0 days
- Count (emergence) [2, 18]: 45.0 ab
- Dwarfs (number not rescued) [2, 18]: 0 e
- Count (emergence) [2, 19]: 43.7 ab
- Dwarfs (number not rescued) [2, 19]: 0 e
- Count (emergence) [2, 20]: 39.3 b
- Dwarfs (number not rescued) [2, 20]: 0 e
- Count (emergence) [2, 21]: 1.2e+16 fg
- Dwarfs (number not rescued) [2, 21]: 0
- Count (emergence) [2, 22]: 19.3 fg
- Dwarfs (number not rescued) [2, 22]: 0
- Count (emergence) [2, 23]: 26.3 c-f
- Dwarfs (number not rescued) [2, 23]: 0
- rank of potential for rescuing GA-deficient dwarf soybeans without decreasing emergence ([2]; based on the last two field trials): GA9>GA5>GA3-3-acetate>GA3>GA12
- best to least selectivity order ([2]; emergence under soil compaction, margin of selectivity, rescue without overelongation, Table 22): GA9>GA5>GA3-3-acetate>GA3
- ^14C Label Distribution (% of dose), Cotyledon ([3]; 3 DAP): 85 % of dose
- ^14C Label Distribution (% of dose), Hypocotyl ([3]; 3 DAP): 1.5 % of dose
- ^14C Label Distribution (% of dose), Root ([3]; 3 DAP): 0.5 % of dose
- ^14C Label Distribution (% of dose), Cotyledon ([3]; 12 DAP): 72 % of dose
- ^14C Label Distribution (% of dose), Epicotyl ([3]; 12 DAP): 0.2 % of dose
- ^14C Label Distribution (% of dose), Hypocotyl ([3]; 12 DAP): 1.4 % of dose
- ^14C Label Distribution (% of dose), Leaves ([3]; 12 DAP): 0.9 % of dose
- ^14C Label Distribution (% of dose), Root ([3]; 12 DAP): 2.8 % of dose
- Significant Visual Observations on Line A3237 [4]: Poor emergence
- restoration of height of line 234 soybeans ([5]; hypocotyl and epicotyl elongation, hypocotyl to epicotyl ratio not maintained): restore normal height to line 234 soybeans
- response of line 234 height ([5]; seed treatment rates between 0.1 and 1 μg/seed): generally similar response
